Results from patent US12097177B2, “Therapeutic method for cat with chronic kidney disease” (Toray Industries, Inc., priority 2021, dated 2024).

Tested on: cats with CKD
Experiment: Retrospective observation study: period before progression into IRIS stage 4, BPS therapy vs No BPS therapy (Kaplan-Meier)
Assay type: in vivo, cat
Settings: for 3-year stage progression-free rate: cats with CKD, twice daily
Protocol: To compare the periods before progression of feline CKD into stage 4 with BPS therapy and without BPS therapy, the following retrospective observation studies were performed. The studies were performed at Ichikawa General Hospital, Kariya Animal Hospital, Inc., that had adopted the electronic chart system for veterinary hospitals, Ahmics (trademark) (PetCommunications Co., Ltd.), and completely eliminated the use of paper charts before 2017. In this hospital, all-encompassing information concerning medical treatment such as test data, death records, and drug prescription records of all patient animals have been managed by the electronic chart system. Specifically, the data sets of 1,681 cats subjected to the serum creatinine test and the data sets of 1,399 cats subjected to the urinalysis from Apr. 1, 2017 to Dec. 10, 2020 were extracted. Among them, by excluding 951 cats without records, the data sets of 730 cats that were diagnosed to have CKD as a result of serum creatinine tests at least two times, urinalysis, and other clinical tests were extracted.
Based on the drug prescription records, cats were divided into two groups: a BPS therapy group consisting of 57 cats; and a BPS therapy-free group consisting of 77 cats, and the baseline characteristics and the periods before progression into stage 4 were compared and analyzed retrospectively. To the cats in the BPS therapy group, BPS drugs for veterinary use, RAPROS (trademark) (Toray Industries, Inc.), were administered while adjusting the amount of BPS to 14.1 to 52.4 μg/kg body weight/day and the median to 29.1 μg/kg body weight/day twice daily during or after morning and evening feeding occasions. […] Progression into stage 4 was examined by the method defined by the IRIS staging. Specifically, progression into stage 4 was determined based on serum creatinine or serum SDMA measured to be higher than 5.0 mg/dL or higher than 38 μg/dL, respectively, via two or more hospital visits. By designating progression into stage 4 as the outcome, the start date of treatment as the point of origin for the cats in the BPS therapy group, and the start date of observation as the point of origin for the cats in the No BPS therapy group, the periods (months) before the outcome was observed were recorded. In analysis, the 3-year stage progression-free rates (%) of the BPS therapy group and of the No BPS therapy group, the standard errors thereof, the 95% confidence intervals, and the comparison of the 3-year stage progression-free rates (%) between the groups were calculated. […] The average period (months) before progression into stage 4, the standard error thereof, the 95% confidence intervals, the medians and the standard errors thereof, the 95% confidence intervals, and the comparison of the average stage progression-free periods were calculated. Differences in the stage progression-free rates were assessed by the log rank test, the Cochran-Mantel-Haenszel test, by setting significant level at a two-tailed P-value of <0.05.
Based on the drug prescription records, cats were divided into two groups: a BPS therapy group consisting of 37 cats; and a BPS therapy-free group consisting of 332 cats, and the baseline characteristics and the periods before progression into stage 4 were compared and analyzed retrospectively. To the cats in the BPS therapy group, BPS drugs for veterinary use, RAPROS (trademark) (Toray Industries, Inc.), were administered while adjusting the amount of BPS to 18.5 to 42.3 μg/kg body weight/day and the median to 26.5 μg/kg body weight/day twice daily during or after morning and evening feeding occasions. Progression into stage 4 was examined by the method defined by the IRIS staging. Specifically, progression into stage 4 was determined based on serum creatinine or serum SDMA measured to be higher than 5.0 mg/dL or higher than 38 μg/dL, respectively, via two or more hospital visits. […]

[1] = stage 2 (serum creatinine 1.6 to 2.8 mg/dL)
[2] = stage 3 (serum creatinine 2.9 to 5.0 mg/dL)
[3] = stage 3 (serum creatinine 2.9 to 5.0 mg/dL), Kaplan-Meier

CC#CCC(C)[C@H](O)/C=C/[C@@H]1[C@H]2c3cccc(CCCC(=O)[O-])c3O[C@H]2C[C@H]1O.[Na+] (some centres unmarked) [BPS, Beraprost sodium]
3-year stage progression-free rate (serum creatinine 1.6 to 2.8 mg/dL (stage 2), BPS 18.5 to 42.3 μg/kg body weight/day): 74.7%
3-year stage progression-free rate (serum creatinine 2.9 to 5.0 mg/dL (stage 3), BPS 14.1 to 52.4 μg/kg body weight/day): 32.7%
3-year stage progression-free rate of BPS therapy group relative to No BPS therapy group [1]: 0.83 times
average stage progression-free period of BPS therapy group relative to No BPS therapy group [1]: 0.93 times
effect on progression into stage 4 (stage 2 (serum creatinine 1.6 to 2.8 mg/dL) before initiation of administration): no effects of BPS administration to inhibit progression into stage 4 were observed
average period before progression into stage 4 (stage 2 (serum creatinine 1.6 to 2.8 mg/dL), Kaplan-Meier): 38.0 months
3-year stage progression-free rate of BPS therapy group relative to No BPS therapy group [2]: 1.25 times
average stage progression-free period of BPS therapy group relative to No BPS therapy group [2]: 1.49 times
effect on progression into stage 4 (stage 3 (serum creatinine 2.9 to 5.0 mg/dL) before initiation of administration): effects of BPS administration to inhibit progression into stage 4 were observed
average period before progression into stage 4 [3]: 26.5 months
median period before progression into stage 4 [3]: 31.6 months
